The source of these data is PubChem BioAssay (NCI).

Test systems include UACC-62 melanoma; LOX IMVI melanoma; NCI-H522 lung; BT-549 breast; A549 NSCLC; SNB-75 CNS; SK-MEL-2 melanoma; MDA-MB-231 breast; SNB-19 CNS; RXF 393 renal.
What all share (assay): NCI-60 cell line screen, 48 h

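Compound exposure: 48 hours, 5 concentrations, 96-well plates. GI50 is the concentration that inhibits growth by half. TGI: total growth inhibition.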

Take `Cc1ncc(CCCN(C)C)cc1Nc1ncc2c(n1)-c1ccc(C(F)(F)F)cc1NC(=S)C2`: the GI50 in the test on UACC-62 melanoma was 0.0313 µM; in the test with LOX IMVI melanoma, 0.0276 µM; with NCI-H522 lung it was less than 0.01 µM; with BT-549 breast, 0.768 µM; in the test on A549 NSCLC it was 0.0104 µM; in the test with SNB-75 CNS it was 0.0173 µM. For the same compound, the GI50 was 1.08 µM in the test on SK-MEL-2 melanoma, less than 0.0153 µM in the test with MDA-MB-231 breast and 0.0713 µM with SNB-19 CNS. For the same compound, the TGI was found to be 17.9 µM with UACC-62 melanoma; 15.1 µM in the test on LOX IMVI melanoma; 18.1 µM in the test on NCI-H522 lung; 21.8 µM in the test on BT-549 breast; 11.6 µM in the test with A549 NSCLC; 0.975 µM in the test on SNB-75 CNS. The values for the TGI in the test with SK-MEL-2 melanoma, with MDA-MB-231 breast and in the test with SNB-19 CNS were 6.99 µM, 0.302 µM and 68.9 µM, respectively.

As for `CCn1c(-c2ccc(OC(C)=O)cc2)c(C)c2cc(OC(C)=O)ccc21`, the TGI in the test with UACC-62 melanoma is 28.3 µM; in the test on LOX IMVI melanoma it was 30.6 µM; in the test on NCI-H522 lung, 40 µM; in the test with BT-549 breast it was 88.8 µM; in the test with RXF 393 renal it was 25.6 µM; in the test on A549 NSCLC, 67.9 µM. Further, the TGI was 50.2 µM with SNB-75 CNS, 37.2 µM with SK-MEL-2 melanoma, 38.3 µM in the test on MDA-MB-231 breast and greater than 100 µM in the test on SNB-19 CNS.

As for `Br[C](Br)(Br)[Hg][c]1ccccc1`, the GI50 with UACC-62 melanoma is 16.4 µM; in the test on LOX IMVI melanoma, 9.71 µM; in the test on NCI-H522 lung, 1.44 µM; with BT-549 breast, 17.2 µM; with RXF 393 renal it was 8.55 µM; in the test with A549 NSCLC, 29.4 µM. The GI50 is 15.8 µM in the test on SNB-75 CNS, 17.8 µM with SK-MEL-2 melanoma, 18.1 µM in the test with MDA-MB-231 breast and 16.6 µM with SNB-19 CNS. In addition, the TGI in the test with UACC-62 melanoma worked out at 38.2 µM; with LOX IMVI melanoma, 23.2 µM; with NCI-H522 lung, 3.05 µM; in the test on BT-549 breast it was 31.1 µM; in the test on RXF 393 renal, 21.5 µM; with A549 NSCLC it was 59.5 µM. For the same compound, the TGI was found to be 32.6 µM in the test with SNB-75 CNS, 32 µM in the test with SK-MEL-2 melanoma, 41.3 µM in the test on MDA-MB-231 breast and 30.6 µM in the test with SNB-19 CNS.

Take `COc1cc(/C=C/c2cc(/C=C/c3ccc(O)c(OC)c3)n(C(=O)Nc3ccc(C)cc3C)n2)ccc1O`: the GI50 was 0.412 µM with UACC-62 melanoma; 0.693 µM in the test with BT-549 breast; 0.262 µM in the test with RXF 393 renal; 0.43 µM in the test with A549 NSCLC; 0.613 µM with MDA-MB-231 breast. Moreover, the TGI in the test on UACC-62 melanoma is 1.65 µM; with BT-549 breast, 16.8 µM; in the test with RXF 393 renal it was 0.775 µM; with A549 NSCLC it was 3.2 µM; in the test with MDA-MB-231 breast it was 6.01 µM.

`CN(CCC#N)c1ccc(/C=C(\C#N)c2ccc(Br)cc2)cc1`: the GI50 was greater than 100 µM in the test with BT-549 breast, 3.37 µM in the test on RXF 393 renal, 4.72 µM in the test with MDA-MB-231 breast and greater than 100 µM in the test on SNB-19 CNS. In addition, the TGI in the test on BT-549 breast, in the test with RXF 393 renal, in the test with MDA-MB-231 breast and in the test with SNB-19 CNS was greater than 100 µM in each case.

Regarding `COc1ccc(/C=C/C(=O)C(CC2CCC2)C(=O)/C=C/c2ccc(OC)c(OC)c2)cc1OC`, the GI50 in the test with LOX IMVI melanoma was 1.25 µM; with BT-549 breast, 1.54 µM; with RXF 393 renal, 1.85 µM; in the test with SNB-75 CNS it was 1.32 µM; in the test with SK-MEL-2 melanoma it was 2.11 µM; in the test with MDA-MB-231 breast it was 3.77 µM. Moreover, the TGI in the test with LOX IMVI melanoma is 2.52 µM; in the test with BT-549 breast, 4.04 µM; with RXF 393 renal, 3.47 µM; in the test on SNB-75 CNS, 2.74 µM; in the test with SK-MEL-2 melanoma, 4.7 µM; in the test with MDA-MB-231 breast, greater than 100 µM.

With `Cc1ccc(-c2nc3ccc(Cl)cc3c(=O)n2N2C(=O)CSC2c2ccccc2Cl)cc1` (configuration not stated), the GI50 in the test on UACC-62 melanoma was 25.8 µM; with LOX IMVI melanoma it was 70.1 µM; in the test on BT-549 breast, greater than 100 µM; in the test on RXF 393 renal it was 6.46 µM; in the test with SNB-75 CNS, 1.39 µM; with MDA-MB-231 breast it was 4.21 µM. Also, the GI50 in the test on SNB-19 CNS is 5 µM. Also, the TGI is greater than 100 µM with UACC-62 melanoma; greater than 100 µM with LOX IMVI melanoma; greater than 100 µM in the test with BT-549 breast; greater than 100 µM in the test on RXF 393 renal; 4.74 µM with SNB-75 CNS; greater than 100 µM in the test with MDA-MB-231 breast. The same compound displayed a TGI in the test with SNB-19 CNS greater than 100 µM.

`CC(=O)N[C@H]1CSSC[C@@H](C(N)=O)NC(=O)[C@H](C(C)C)NC(=O)[C@H](C)NC(=O)[C@H](Cc2cnc[nH]2)NC1=O`: the GI50 in the test with UACC-62 melanoma, with LOX IMVI melanoma, in the test with NCI-H522 lung, with BT-549 breast, in the test on RXF 393 renal and with A549 NSCLC was greater than 100 µM throughout. For the same compound, the GI50 in the test with SK-MEL-2 melanoma, in the test with MDA-MB-231 breast and in the test with SNB-19 CNS was greater than 100 µM each time. Also, the TGI with UACC-62 melanoma, in the test on LOX IMVI melanoma, in the test on NCI-H522 lung, in the test with BT-549 breast, in the test with RXF 393 renal and in the test on A549 NSCLC was greater than 100 µM throughout. Further, the TGI in the test with SK-MEL-2 melanoma, in the test with MDA-MB-231 breast and in the test on SNB-19 CNS was greater than 100 µM throughout.

Consider `COc1c(CCl)cc(-c2cc(=O)c3ccccc3s2)cc1CCl`, for which the TGI is greater than 100 µM in the test on UACC-62 melanoma; greater than 100 µM in the test with BT-549 breast; 3.2 µM in the test on RXF 393 renal; greater than 100 µM in the test with A549 NSCLC; 24.9 µM with SNB-75 CNS; greater than 100 µM with SK-MEL-2 melanoma. In the test with SNB-19 CNS, the TGI was greater than 88.9 µM.

Turning to `Nc1ccn(C2CCC(CO)O2)c(=O)n1` (configuration not stated), the GI50 with UACC-62 melanoma, with LOX IMVI melanoma, in the test on A549 NSCLC, with SNB-75 CNS, with SK-MEL-2 melanoma and with SNB-19 CNS was greater than 1000 µM throughout. In addition, the TGI in the test with UACC-62 melanoma, with LOX IMVI melanoma, in the test on NCI-H522 lung, with BT-549 breast, in the test with A549 NSCLC and in the test on SNB-75 CNS was greater than 1000 µM each time. The TGI in the test with SK-MEL-2 melanoma, in the test with MDA-MB-231 breast and with SNB-19 CNS was greater than 1000 µM in each case.
